Test systems include M14 melanoma; SN12C renal; HL-60(TB) leukemia; CCRF-CEM leukemia; MOLT-4 leukemia; MDA-MB-435; RXF 393 renal; UACC-62 melanoma; OVCAR-3 ovarian; SNB-75 CNS; PC-3 prostate; A549 NSCLC; SK-MEL-2 melanoma; HS 578T breast; CAKI-1 renal; HCT-15 colon; SK-MEL-5 melanoma; EKVX NSCLC; NCI-H522 lung; HOP-62 NSCLC.
Holding throughout (experiment): NCI anticancer screen, dose series, 48 h

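Growth conditions: 96-well plates. Treatment: test compound, 48 hours, 5 concentrations. Analysis: linear interpolation between bracketing concentrations; unreached endpoints set to highest concentration. TGI is the concentration that stops growth completely.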

Turning to `Nc1nc(NCC2(CO)CC2)cc(=O)[nH]1`, the TGI in the assay on M14 melanoma, in the assay on SN12C renal, in the assay on HL-60(TB) leukemia, in the assay on CCRF-CEM leukemia, in the assay with MOLT-4 leukemia and in the assay on MDA-MB-435 was greater than 100 µM each time. The TGI in the assay with RXF 393 renal, in the assay on UACC-62 melanoma, in the assay on OVCAR-3 ovarian, with SNB-75 CNS, in the assay on PC-3 prostate and in the assay on A549 NSCLC was greater than 100 µM each time. In addition, the TGI with SK-MEL-2 melanoma, in the assay on HS 578T breast, in the assay with CAKI-1 renal, in the assay with HCT-15 colon, with SK-MEL-5 melanoma and with EKVX NSCLC was greater than 100 µM in each case. The TGI in the assay with NCI-H522 lung and in the assay with HOP-62 NSCLC was greater than 100 µM each time.
`CCN1CCC(O)(/C=C/c2ccc(C)cc2)C(C(=O)/C=C/c2ccc(C)cc2)C1` (stereo not given): the TGI stood at 9.52 µM with M14 melanoma; 20.6 µM in the assay on SN12C renal; 5.15 µM in the assay with HL-60(TB) leukemia; 5.62 µM in the assay on CCRF-CEM leukemia; 4.59 µM in the assay on MOLT-4 leukemia; 8.75 µM in the assay with MDA-MB-435. For the same compound, the TGI is 10.6 µM in the assay with RXF 393 renal; 12.3 µM with UACC-62 melanoma; 18.4 µM in the assay on OVCAR-3 ovarian; 22 µM in the assay on SNB-75 CNS; 18.1 µM with PC-3 prostate; 21.4 µM with A549 NSCLC. Further, the TGI in the assay on SK-MEL-2 melanoma stood at 15.9 µM; with HS 578T breast, 7.55 µM; with CAKI-1 renal, 8.1 µM; in the assay on HCT-15 colon it was 16.2 µM; with SK-MEL-5 melanoma, 9.85 µM; with EKVX NSCLC, 26.3 µM. Further, the results for the TGI with NCI-H522 lung and with HOP-62 NSCLC were 3.62 µM and 25.9 µM, respectively.
On to `CN1CCc2c(sc3ncn(C)c(=N)c23)C1`, for which the TGI in the assay with M14 melanoma, in the assay with SN12C renal, in the assay on HL-60(TB) leukemia, in the assay on CCRF-CEM leukemia, in the assay on MOLT-4 leukemia and with MDA-MB-435 was greater than 100 µM in each case. For the same compound, the TGI with RXF 393 renal, with UACC-62 melanoma, with OVCAR-3 ovarian, in the assay on SNB-75 CNS, in the assay on PC-3 prostate and in the assay with A549 NSCLC was greater than 100 µM each time. The TGI with SK-MEL-2 melanoma, in the assay on HS 578T breast, with CAKI-1 renal, in the assay with HCT-15 colon, in the assay on SK-MEL-5 melanoma and in the assay with EKVX NSCLC was greater than 100 µM in each case. The TGI in the assay on NCI-H522 lung and in the assay with HOP-62 NSCLC was greater than 100 µM each time.
For the compound `CCC(C)C1NC(=O)C(NC(=O)c2c3[nH]c4c(C(=O)NC5C(=O)NC(C(C)CC)C(=O)N6CCCC6C(=O)N(C)CC(=O)N(C)C(C(C)C)C(=O)OC5C)ccc(C)c4oc-3c(C)c(=O)c2=O)C(C)OC(=O)C(C(C)C)N(C)C(=O)CN(C)C(=O)C2CCCN2C1=O` (stereo not given), the TGI is 40.5 µM in the assay on M14 melanoma; greater than 100 µM in the assay on SN12C renal; 52.2 µM in the assay with HL-60(TB) leukemia; 9.81 µM in the assay with CCRF-CEM leukemia; greater than 39.8 µM in the assay with MOLT-4 leukemia; greater than 71.6 µM in the assay on MDA-MB-435. In addition, the TGI in the assay with RXF 393 renal is 25 µM; in the assay on UACC-62 melanoma it was 17.6 µM; in the assay with OVCAR-3 ovarian, 62.9 µM; in the assay with SNB-75 CNS it was 32.9 µM; in the assay on PC-3 prostate it was greater than 100 µM; in the assay on A549 NSCLC, greater than 100 µM. For the same compound, the TGI is 17.2 µM in the assay on SK-MEL-2 melanoma; 37.8 µM in the assay with HS 578T breast; greater than 91.2 µM in the assay on CAKI-1 renal; greater than 100 µM in the assay on HCT-15 colon; greater than 100 µM with SK-MEL-5 melanoma; greater than 100 µM with EKVX NSCLC. Also, the TGI is 5.06 µM in the assay on NCI-H522 lung and greater than 100 µM in the assay with HOP-62 NSCLC.
In the case of `O=C(Oc1cccnc1)c1cc2cc(CCl)ccc2oc1=O`, the TGI was 53.1 µM with M14 melanoma; 50.1 µM with SN12C renal; 58.4 µM with HL-60(TB) leukemia; greater than 100 µM in the assay on CCRF-CEM leukemia; 61.4 µM in the assay on MOLT-4 leukemia; 73 µM in the assay with MDA-MB-435. In addition, the TGI in the assay on RXF 393 renal was 31.5 µM; with UACC-62 melanoma, 36.9 µM; with OVCAR-3 ovarian, 57.9 µM; with SNB-75 CNS, 79.7 µM; in the assay with PC-3 prostate it was 32.9 µM; with A549 NSCLC, greater than 100 µM. Further, the TGI in the assay on SK-MEL-2 melanoma was 54 µM; in the assay with HS 578T breast, 55.1 µM; in the assay with CAKI-1 renal, 35 µM; with HCT-15 colon it was 58.5 µM; with SK-MEL-5 melanoma, greater than 100 µM; in the assay with EKVX NSCLC, 52.1 µM. The TGI with NCI-H522 lung is 35.5 µM; with HOP-62 NSCLC it was greater than 100 µM.
Turning to `CC(C(=O)OCc1ccccc1)(c1ccco1)N1C(=O)OC(c2ccccc2)C1c1ccccc1` (stereo not given), the TGI in the assay with M14 melanoma, in the assay on SN12C renal, in the assay with HL-60(TB) leukemia, in the assay on CCRF-CEM leukemia, in the assay with MOLT-4 leukemia and in the assay on MDA-MB-435 was greater than 100 µM each time. The TGI in the assay with RXF 393 renal, in the assay on UACC-62 melanoma, in the assay with OVCAR-3 ovarian, in the assay on SNB-75 CNS, with PC-3 prostate and in the assay on A549 NSCLC was greater than 100 µM in each case. The TGI in the assay with SK-MEL-2 melanoma, in the assay on HS 578T breast, in the assay with CAKI-1 renal, in the assay on HCT-15 colon, in the assay on SK-MEL-5 melanoma and in the assay on EKVX NSCLC was greater than 100 µM each time. The TGI in the assay with NCI-H522 lung and with HOP-62 NSCLC was greater than 100 µM throughout.
As to `CCCCSC1=N/C(=C\c2ccco2)C(Cl)=N1`, the TGI in the assay with M14 melanoma, with SN12C renal, in the assay on HL-60(TB) leukemia, with CCRF-CEM leukemia, with MOLT-4 leukemia and with MDA-MB-435 was greater than 100 µM throughout. In addition, the TGI with RXF 393 renal, in the assay with UACC-62 melanoma, with OVCAR-3 ovarian, in the assay with SNB-75 CNS, with PC-3 prostate and in the assay with A549 NSCLC was greater than 100 µM each time. The TGI in the assay on SK-MEL-2 melanoma, in the assay on HS 578T breast, in the assay with CAKI-1 renal, in the assay on HCT-15 colon, in the assay with SK-MEL-5 melanoma and in the assay with EKVX NSCLC was greater than 100 µM each time. Also, the TGI in the assay on NCI-H522 lung and with HOP-62 NSCLC was greater than 100 µM in each case.
In the case of `CCCCCCOc1ccc(Nc2c(O)c3c(c(O)c2Cl)C(=O)C=CC3=O)cc1`, the TGI is greater than 6.68 µM in the assay with M14 melanoma; 4.54 µM in the assay with SN12C renal; 3.74 µM with HL-60(TB) leukemia; 8.61 µM with CCRF-CEM leukemia; greater than 6.98 µM with MOLT-4 leukemia; 3.9 µM in the assay with MDA-MB-435. In addition, the TGI in the assay with RXF 393 renal is 4.41 µM; in the assay on UACC-62 melanoma, 7.99 µM; in the assay with OVCAR-3 ovarian, 4.77 µM; with SNB-75 CNS it was greater than 10 µM; in the assay on PC-3 prostate it was greater than 10 µM; in the assay with A549 NSCLC it was greater than 10 µM. Moreover, the TGI is 7.05 µM with SK-MEL-2 melanoma; 8.39 µM in the assay on HS 578T breast; greater than 10 µM in the assay on CAKI-1 renal; 3.68 µM with HCT-15 colon; 3.02 µM in the assay on SK-MEL-5 melanoma; greater than 10 µM in the assay on EKVX NSCLC. Further, the TGI in the assay on NCI-H522 lung is 3.98 µM; in the assay with HOP-62 NSCLC, greater than 8.71 µM.
As for `COc1cc(O)c(C(=O)/C=C/c2ccc(O)cc2)cc1Oc1ccc(/C=C/C(=O)c2ccc(O)cc2O)cc1`, the TGI with M14 melanoma came out at 17.4 µM; in the assay with SN12C renal, 19.4 µM; in the assay with HL-60(TB) leukemia, 34 µM; in the assay on CCRF-CEM leukemia, 29.4 µM; in the assay on MOLT-4 leukemia, 38.8 µM; with MDA-MB-435, 25.7 µM. In addition, the TGI in the assay on RXF 393 renal is 17.5 µM; in the assay with UACC-62 melanoma it was 17.6 µM; in the assay with OVCAR-3 ovarian, 17 µM; with SNB-75 CNS it was 20.1 µM; in the assay with PC-3 prostate, 22.1 µM; with A549 NSCLC it was greater than 50 µM. Further, the TGI with SK-MEL-2 melanoma was 21.9 µM; in the assay with HS 578T breast, greater than 50 µM; in the assay with CAKI-1 renal, 38.9 µM; in the assay on HCT-15 colon, 21 µM; in the assay with SK-MEL-5 melanoma, 14.3 µM; in the assay on EKVX NSCLC, 27.7 µM. Moreover, the results for the TGI in the assay on NCI-H522 lung and with HOP-62 NSCLC were 16 µM and 18.7 µM, respectively.
In the case of `CC1=NC(=Cc2cc(Br)cc(Br)c2)C(=O)N1n1c(-c2ccccc2)nc2ccccc2c1=O`, the TGI with M14 melanoma, in the assay on SN12C renal, in the assay with HL-60(TB) leukemia, in the assay with CCRF-CEM leukemia, with MOLT-4 leukemia and with MDA-MB-435 was greater than 100 µM each time. The TGI in the assay with RXF 393 renal, in the assay on UACC-62 melanoma, with OVCAR-3 ovarian, in the assay with SNB-75 CNS, in the assay with PC-3 prostate and in the assay with A549 NSCLC was greater than 100 µM throughout. Moreover, the TGI in the assay on SK-MEL-2 melanoma, in the assay with HS 578T breast, with CAKI-1 renal, in the assay with HCT-15 colon, with SK-MEL-5 melanoma and in the assay on EKVX NSCLC was greater than 100 µM each time. In addition, the TGI with NCI-H522 lung and in the assay with HOP-62 NSCLC was greater than 100 µM each time.
Regarding `Ic1cccc(/C=C/CN2CCN(CCOC(c3ccccc3)c3ccccc3)CC2)c1`, the TGI in the assay with M14 melanoma stood at 38.8 µM; in the assay on SN12C renal, 29.6 µM; with HL-60(TB) leukemia, 30.9 µM; in the assay on CCRF-CEM leukemia, 32.4 µM; in the assay with MOLT-4 leukemia it was 35.9 µM; in the assay on MDA-MB-435, 30.4 µM. Besides, the TGI in the assay with RXF 393 renal is 27.5 µM; in the assay with UACC-62 melanoma it was 37.4 µM; with OVCAR-3 ovarian, 32.4 µM; in the assay with SNB-75 CNS, 37.6 µM; with PC-3 prostate, 66.3 µM; in the assay with A549 NSCLC, 45 µM. The TGI was found to be 38.3 µM in the assay with SK-MEL-2 melanoma; 76.2 µM in the assay with HS 578T breast; 41.4 µM in the assay on CAKI-1 renal; 34.4 µM in the assay on HCT-15 colon; 32.2 µM in the assay on SK-MEL-5 melanoma; 41.4 µM with EKVX NSCLC. In addition, the results for the TGI in the assay on NCI-H522 lung and in the assay on HOP-62 NSCLC were 36.8 µM and 32.6 µM, respectively.

The record behind these values is PubChem BioAssay (NCI).
